Test results: patent US7504421B2, “Substituted 2-thio-3,5-dicyano-4-aryl-6-aminopyridines and their use” (priority 1999, dated 2009)
Like-named read-outs stand apart in the source and are kept apart here.

Columns and labels:
[1] = target: T1, adenosine A2b receptor (Homo sapiens, UniProt P29275); experiment: Intracellular cAMP (cAMP-RIA) in CHO cells transfected with cDNA for the A2b receptor, agonist mode; assay type: cell-based; details: for activity at 10 µM / activity at 1 µM / activity at 0.1 µM / activity at 0.01 µM / activity at 0.001 µM: read-out: Concentration of intracellular cAMP in percent; for agonistic effect on cells which express the adenosine receptor A2b (in words): summary of cAMP data
T1 sequence (P29275 1-332): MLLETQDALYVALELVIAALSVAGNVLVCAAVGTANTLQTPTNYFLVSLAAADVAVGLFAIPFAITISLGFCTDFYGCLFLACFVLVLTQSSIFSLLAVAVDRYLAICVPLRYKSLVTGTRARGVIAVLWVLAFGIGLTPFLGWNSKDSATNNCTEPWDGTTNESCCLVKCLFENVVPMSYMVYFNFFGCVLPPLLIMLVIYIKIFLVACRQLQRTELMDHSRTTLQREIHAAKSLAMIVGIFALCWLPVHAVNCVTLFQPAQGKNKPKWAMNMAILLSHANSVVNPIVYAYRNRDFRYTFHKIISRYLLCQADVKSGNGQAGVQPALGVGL
Experimental: (§1) Cells of the permanent line CHO (Chinese Hamster Ovary) were stably transfected with cDNA for the adenosine receptor subtypes A1, A2a, A2b and A3. Binding of the substances to the A2a or A2b receptor subtypes was determined by measuring the intracellular cAMP concentration in these cells using a conventional radioimmunological assay (cAMP-RIA, IBL GmbH, Hamburg, Germany).
(§2) In the case of the action of the substances as agonists, binding of the substances is expressed in an increase of the intracellular cAMP concentration.
(§3) In the experiments below, the intracellular cAMP concentration in CHO cells which had been transfected with cDNA for the A2b receptor was determined. What is stated is the cAMP concentration in percent in all cells in a well of a microtiter plate, based on the control value obtained without any substances acting on the cells: […]

[2] = target: adenosine A2a receptor (Homo sapiens, UniProt P29274); experiment: Intracellular cAMP (cAMP-RIA) in CHO cells transfected with cDNA for the A2a receptor, agonist mode; assay type: cell-based; details: for Concentration of intracellular cAMP in percent: CHO cells with A2a receptor, based on control without substance; for effect on cells with the A2a receptor (in words): summary of cAMP data
Experimental: as §1, §2
as §3, with “A2a” for “A2b”

[3] = target: T2, adenosine A1 receptor (Homo sapiens, UniProt P30542); experiment: Intracellular cAMP in CHO cells transfected with cDNA for the A1 receptor after prestimulation with forskolin; assay type: cell-based; details: for remaining activity at 10 µM / remaining activity at 1 µM / remaining activity at 0.1 µM: CHO cells with A1 receptor, based on control prestimulated with 1 μM forskolin for 15 min (18% without forskolin), read-out: Concentration of intracellular cAMP in percent; for remaining activity at 10 µM: 10^-5 M; for remaining activity at 1 µM: 10^-6 M; for remaining activity at 0.1 µM: 10^-7 M; for receptor selectivity: adenosine A1 receptor: conclusion from cAMP data on A1, A2a, A2b cells; for agonistic effect on cells with the A1 receptor (in words): summary of cAMP data
T2 sequence (P30542 1-326): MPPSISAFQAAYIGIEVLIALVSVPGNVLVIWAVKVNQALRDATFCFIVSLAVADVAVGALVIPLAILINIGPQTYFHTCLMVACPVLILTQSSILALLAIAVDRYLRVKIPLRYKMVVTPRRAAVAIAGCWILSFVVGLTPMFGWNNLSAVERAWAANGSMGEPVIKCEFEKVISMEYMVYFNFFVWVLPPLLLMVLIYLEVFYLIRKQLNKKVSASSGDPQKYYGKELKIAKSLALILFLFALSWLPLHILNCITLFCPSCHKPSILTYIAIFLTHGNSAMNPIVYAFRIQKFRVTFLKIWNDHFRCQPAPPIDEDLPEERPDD
Experimental: as §1
The adenosine receptors A1 and A3 are coupled to a Gi protein, i.e. stimulation of these receptors results in an inhibition of adenylate cyclase and thus a reduction of the intracellular cAMP level. To identify A1/A3 receptor agonists, the adenylate cyclase is stimulated using forskolin. However, additional stimulation of the A1/A3 receptors inhibits adenylate cyclase, so that it is possible to detect A1/A3 receptor agonists by a comparatively low concentration of cAMP in the cell.
In the following experiments, the intracellular cAMP concentration in CHO cells transfected with the cDNA for the A1 receptor was determined.

[4] = tested on: Langendorff heart of the rat (coronary arteries); experiment: Langendorff heart of the rat: coronary perfusion pressure, left ventricular pressure, heart rate; details: isolated rat heart
Experimental: After opening the thoracic cage of anesthetized rats, the heart is removed quickly and introduced into a conventional Langendorff apparatus. The coronary arteries are perfused at a constant volume (10 ml/min), and the resulting perfusion pressure is recorded via an appropriate pressure sensor. In this arrangement, a decrease of the perfusion pressure corresponds to a relaxation of the coronary arteries. At the same time, the pressure which is developed by the heart during each contraction is measured via a balloon introduced into the left ventricle and a further pressure sensor. The frequency of the isolated beating heart is calculated from the number of contractions per time unit.
In this test arrangement, the following values were obtained for the coronary perfusion pressure (the stated percentage refers to the reduction of the coronary perfusion pressure in percent at the respective concentration):
At the stated concentrations, the substances tested had no effect on the pressure developed during the contraction in the left ventricle and no effect on the heart rate.

[5] = CHO cells with A2b receptor, 10^-5 M, based on control without substance
[6] = CHO cells with A2b receptor, 10^-6 M, based on control without substance
[7] = CHO cells with A2b receptor, 10^-7 M, based on control without substance

Chain of adenosine A2a receptor (P29274 whole entry): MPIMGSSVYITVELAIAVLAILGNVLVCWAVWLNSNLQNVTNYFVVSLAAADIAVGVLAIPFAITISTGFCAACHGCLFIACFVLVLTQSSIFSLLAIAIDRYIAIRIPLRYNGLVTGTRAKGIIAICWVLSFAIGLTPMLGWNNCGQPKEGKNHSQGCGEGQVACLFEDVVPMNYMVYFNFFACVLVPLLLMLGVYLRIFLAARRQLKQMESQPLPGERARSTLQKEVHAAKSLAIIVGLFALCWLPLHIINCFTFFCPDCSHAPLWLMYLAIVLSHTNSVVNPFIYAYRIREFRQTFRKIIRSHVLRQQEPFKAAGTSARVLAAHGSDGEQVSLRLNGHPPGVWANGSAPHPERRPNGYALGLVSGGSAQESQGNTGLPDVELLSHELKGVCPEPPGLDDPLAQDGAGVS

Row | SMILES | activity at 10 µM [1, 5] [%] | activity at 1 µM [1, 6] [%] | activity at 0.1 µM [1, 7] [%] | agonistic effect on cells which express the adenosine receptor A2b (in words) [1] | Concentration of intracellular cAMP in percent ([2]; 10^-5 M) [%] | Concentration of intracellular cAMP in percent ([2]; 10^-6 M) [%] | Concentration of intracellular cAMP in percent ([2]; 10^-7 M) [%] | effect on cells with the A2a receptor (in words) [2] | remaining activity at 10 µM [3] [%] | remaining activity at 1 µM [3] [%] | remaining activity at 0.1 µM [3] [%] | agonistic effect on cells with the A1 receptor (in words) [3] | Reduction of the coronary perfusion pressure in percent ([4]; concentration 10^-6 g/ml) | Reduction of the coronary perfusion pressure in percent ([4]; concentration 10^-7 g/ml) | other results
1 | N#Cc1c(N)nc(SCCO)c(C#N)c1-c1ccccc1 [A 104] | 571 | 586 | 438 | considerably weaker effect | 212 | 146 | 107 | virtually no effect | 21 | 23 | 28 | clear agonistic effect | – | – | receptor selectivity: adenosine A1 receptor [3]: selective adenosine A1 receptor agonists; activity at 0.01 µM ([1]; CHO cells with A2b receptor, 10^-8 M, based on control without substance): 178%; activity at 0.001 µM ([1]; CHO cells with A2b receptor, 10^-9 M, based on control without substance): 100%; Concentration of intracellular cAMP in percent ([2]; 10^-8 M): 107%; Concentration of intracellular cAMP in percent ([2]; 10^-9 M): 104%
2 | Cc1ccc(-c2c(C#N)c(N)nc(SCc3ccccc3)c2C#N)cc1 [A 189] | – | – | – | – | – | – | – | – | – | – | – | – | about 37% | no effect observed | –
3 | Cc1ccc(-c2c(C#N)c(N)nc(SCC(O)CO)c2C#N)cc1 (stereo not drawn) [A 198] | – | – | – | – | – | – | – | – | – | – | – | – | about 26% | no effect observed | –
4 | N#Cc1c(N)nc(SCc2ncc[nH]2)c(C#N)c1-c1ccc(O)cc1 [A 379] | – | – | – | clear agonistic effect | 291 | 235 | 218 | virtually no effect | 35 | 34 | 34 | comparably weaker effect | about 63% | about 64% | activity at 0.001 µM ([1]; CHO): 870%; activity at 0.01 µM ([1]; CHO): 846%; activity at 0.1 µM ([1]; CHO): 861%; activity at 1 µM ([1]; CHO): 936%; receptor selectivity: adenosine A2b receptor ([1]; conclusion from cAMP data on A1, A2a, A2b cells): selective adenosine A2b receptor agonist; Concentration of intracellular cAMP in percent ([2]; 10^-8 M): 160%; Concentration of intracellular cAMP in percent ([2]; 10^-9 M): 93%
5 | N#Cc1c(N)nc(SCCO)c(C#N)c1-c1ccc(O)cc1 [Example 21, 2-Amino-6-[(2-hydroxyethyl)sulfanyl]-4-(4-hydroxyphenyl)-3,5-pyridinedicarbonitrile] | – | – | – | – | – | 117 | 143 | – | – | – | – | – | about 75% | about 40% | activity at 0.1 µM ([1]; CHO): 253%; activity at 1 µM ([1]; CHO): 432%; activity at 10 µM ([1]; CHO): 384%

Second part, led by results:

Row | activity at 10 µM [1, 5] [%] | activity at 1 µM [1, 6] [%] | activity at 0.1 µM [1, 7] [%] | agonistic effect on cells which express the adenosine receptor A2b (in words) [1] | Concentration of intracellular cAMP in percent ([2]; 10^-5 M) [%] | Concentration of intracellular cAMP in percent ([2]; 10^-6 M) [%] | Concentration of intracellular cAMP in percent ([2]; 10^-7 M) [%] | effect on cells with the A2a receptor (in words) [2] | remaining activity at 10 µM [3] [%] | remaining activity at 1 µM [3] [%] | remaining activity at 0.1 µM [3] [%] | agonistic effect on cells with the A1 receptor (in words) [3] | SMILES | Reduction of the coronary perfusion pressure in percent ([4]; concentration 10^-6 g/ml) | Reduction of the coronary perfusion pressure in percent ([4]; concentration 10^-7 g/ml) | other results
6 | 900 | 947 | 837 | clear agonistic effect | 208 | 117 | 92 | virtually no effect | – | – | – | – | N#Cc1c(N)nc(SCC(N)=O)c(C#N)c1-c1ccc(O)cc1 [A 1] | – | – | –
7 | 784 | 674 | 347 | considerably weaker effect | 317 | 200 | 117 | virtually no effect | 22 | 24 | 18 | clear agonistic effect | N#Cc1c(N)nc(SCCO)c(C#N)c1-c1cccc(O)c1 [A 43] | about 68% | about 42% | receptor selectivity: adenosine A1 receptor [3]: selective adenosine A1 receptor agonists
8 | 753 | 716 | 463 | – | 183 | 108 | 67 | – | – | – | – | – | CC(O)CSc1nc(N)c(C#N)c(-c2cccc(O)c2)c1C#N (stereo not drawn) [A 46] | – | – | –
